“And” between values parts separate entries of the source, which are not always exact repeats. Equal entries are not always repeated.
What was measured:
L. monocytogenes [1] = assay: Growth yields in MWB at 30° C.; assay type: cell-based, Listeria monocytogenes; conditions: data not shown
L. monocytogenes [2] = assay: Biofilm formation on PVC microplates under static condition (crystal violet, A595); assay type: cell-based, Listeria monocytogenes; conditions: for inhibitory rate of biofilm formation (group): 24 h incubation
Source text: The quantification of biofilm production on plastic microtiter plates and glass tubes was based on a previously described method (Djordjevic et al., 2002). As abiotic surfaces for biofilm formation, 96-well polyvinyl chloride (PVC) microplates (BD Biosciences, San Jose, Calif., USA) and Pyrex glass tube (10 mm by 20 mm) were used. Overnight cultures of 12 strains of L. monocytogenes were twice washed with PBS and inoculated at 10^6 CFU/ml in modified Welshimer's broth (MWB) supplemented different concentrations of CMP (Davisco Foods International, Inc., MN, USA; 0.1, 0.2, and 0.4 mg/ml or 1.0, 2.0, and 4.0 mg/ml). After incubation at 30° C. without agitation for 24 and 48 h, the microplates were twice rinsed thoroughly with double-distilled water, and a 0.1% (w/v) solution of crystal violet (CV) was added to stain the attached cells. Following staining at room temperature for 30 min, CV was removed and the wells were rinsed with double-distilled water thrice. After the microplates were air dried, the dye was solubilized with 95% ethanol solution. The absorbance at 595 nm of the solubilized dye was subsequently determined by using an enzyme-linked immunosorbent assay (ELISA) plate reader (Molecular Devices, Sunnyvale, Calif., USA). An equal volume of 95% ethanol was added in the control wells.
All experiments were conducted at least in triplicate. The effects of each treatment were analyzed by analysis of variance (ANOVA) followed by Duncan's test with the SAS software package (version 9.1; SAS, Inc., Cary, N.C., USA). The level of significance was defined at p<0.05.

[3] = test system: L. monocytogenes 3990 and 18; assay: Flow chamber biofilm assay (glass capillary tubes, continuous flow); assay type: cell-based, Listeria monocytogenes; conditions: 0.4 mg/ml CMP
Protocol: Under continuous flow conditions, biofilms were grown in glass capillary tubes by using a slight modification of the previously described method (Purevdorj et al., 2002). The flow chambers, with individual channel dimensions of 3 mm×3 mm×50 mm (Stovall Life Sciences, Inc., Greensboro, N.C., USA), were inoculated with 1 ml (˜10^9 CFU/ml) of the overnight cultures of L. monocytogenes grown in TSBYE. The inoculum was injected to fill the inside of the glass tubes by using a syringe. The tubing upstream of the glass tube was clamped, and the system allowed standing without flow for 30 min at room temperature. After inoculation, the capillary tubes were mounted on a standard microscope slide. The system was switched to continuous culture mode by delivering MWB to the home-made carboy with a flow rate of 0.1 ml/min at 30° C. […] The biofilms developed in the flow chambers were monitored by using transmitted light and 10× objective lenses with an Olympus CH2 microscope (Olympus, Tokyo, Japan).

[4] = test system: L. monocytogenes Scott A to HT-29 cell; assay: Invasion analysis (gentamicin-based) on HT-29 cells; assay type: cell-based, Listeria monocytogenes; conditions: CMP 0.4 mg/ml, at the lower MOI, 1.5 h 37° C.
Source text: The human intestinal epithelial cell line HT-29 and the human gastric epithelial cell line AGS were purchased from the Korea Cell Line Bank (KCLB; Seoul, Korea). HT-29 cells have been extensively used as a model system for studying interaction of enteric pathogens with intestinal epithelial cells. All media and fetal bovine serum (FBS) were obtained from Gibco BRL (Life Technologies Inc., Grand Island, N.Y., USA) and JBI (Jeil Biotech services Inc., Seoul, Korea). The HT-29 and AGS cells were grown in RPMI-1640 medium which was supplemented with 10% heat-inactivated FBS. The cells were routinely cultured at 37° C. in 5% CO2 incubator with 6-well or 12-well tissue culture plates for adhesion and invasion assays and in 100-mm-diameter tissue culture plates for RNA isolation.
The invasion of epithelial cells by L. monocytogenes Scott A was studied using the gentamicin-based assay described by Bunduki et al. (1993) and Gaillard et al. (1987) with modifications. Briefly, the HT-29 and the AGS cells monolayers (10^6 cells) were inoculated with 100 μl of the L. monocytogenes Scott A suspension (10^8 and 10^6 CFU/ml) and incubated for 1.5 h at 37° C. in the absence or presence of 0.4 mg/ml CMP, respectively. The monolayers were washed with PBS, followed by the addition of 250 μl of 1 mg/ml gentamicin (Sigma) and incubation for an additional 1.5 h. […]

L. monocytogenes Scott A = assay: Nematode Caenorhabditis elegans killing assay; assay type: in vivo
Protocol: Caenorhabditis elegans killing assay were performed as initially described by Tenor et al. (2004) with modification. Briefly, L. monocytogenes Scott A was grown in 10 ml of TSBYE culture for overnight. Culture samples (each, 10 μl) were then spread on NGM agar plates (Brenner, 1974; diameter of each, 30 mm). In the present invention, instead of wild-type Bristol N2 worms, we tested killing of C. elegans glp-4 mutant worms. […] (Mylonakis et al., 2002). For each strain, healthy 12 nematodes in L4 stage were transferred from NGM plates seeded with Escherichia coli OP50 to the plates seeded with L. monocytogenes Scott A in the absence or presence of 0.4 mg/ml of CMP and incubated at 25° C. The number of living worms per plate was determined at various time points for 15 days with a light microscopy (Olympus CH30, Tokyo, Japan). […] Each experimental condition was tested in duplicate or triplicate. In analogous experiments, E. coli OP50 was used as controls.

Q: How did the “effect on growth yields” value (L. monocytogenes [1]) turn out when κ-casein macropeptide [CMP] was run?
A: did not significantly affect

Q: And the “inhibitory effects on biofilm formation at low concentrations” value (L. monocytogenes [2]; 0.1, 0.2, or 0.4 mg/ml tested, effect at 0.4 mg/ml)?
A: profound inhibitory effects

Q: And the “differences in biofilm inhibition among the tested concentrations” value (L. monocytogenes [2]; 1, 2, or 4 mg/ml of CMP)?
A: no significant differences

Q: What about the “decrease of L. monocytogenes biofilms compared to the control” value (L. monocytogenes [2]; PVC microplates, 1, 2, or 4 mg/ml of CMP) of the same substance?
A: < 90%

Q: What about the “inhibitory rate of biofilm formation (group)” value (“inhibitory rate” below) (L. monocytogenes [2]; strain 17, PVC microplates) of the same substance?
A: high inhibition (90%≦inhibition rate represent high inhibition)

Q: And the “inhibitory rate” value (L. monocytogenes [2]; strain 18, PVC microplates)?
A: high inhibition (90%≦inhibition rate represent high inhibition)

Q: And the “inhibitory rate” value (L. monocytogenes [2]; strain 70, PVC microplates)?
A: low inhibition (inhibition rate<87% represent low inhibition)

Q: What about the “inhibitory rate” value (L. monocytogenes [2]; strain 106, PVC microplates) of the same substance?
A: medium inhibition (87%≦inhibition rate<90% represent medium inhibition)

Q: And the “inhibitory rate” value (L. monocytogenes [2]; strain 303, PVC microplates)?
A: low inhibition (inhibition rate<87% represent low inhibition)

Q: And the “inhibitory rate” value (L. monocytogenes [2]; strain 3982, PVC microplates)?
A: high inhibition (90%≦inhibition rate represent high inhibition)

Q: What about the “inhibitory rate” value (L. monocytogenes [2]; strain 3990, PVC microplates) of the same substance?
A: high inhibition (90%≦inhibition rate represent high inhibition)

Q: And the “inhibitory rate” value (L. monocytogenes [2]; strain Brie-1, PVC microplates)?
A: high inhibition (90%≦inhibition rate represent high inhibition)

Q: What about the “inhibitory rate” value (L. monocytogenes [2]; strain LCDC, PVC microplates) of the same substance?
A: low inhibition (inhibition rate<87% represent low inhibition)

Q: And the “inhibitory rate” value (L. monocytogenes [2]; strain Scott A, PVC microplates)?
A: low inhibition (inhibition rate<87% represent low inhibition)

Q: And the “inhibitory rate” value (L. monocytogenes [2]; strain V7, PVC microplates)?
A: medium inhibition (87%≦inhibition rate<90% represent medium inhibition)

Q: And the “inhibitory rate” value (L. monocytogenes [2]; strain V37, PVC microplates)?
A: medium inhibition (87%≦inhibition rate<90% represent medium inhibition)

Q: What about the “microcolonies or aggregates seen” value ([3]; same incubation times as control (12-18 h)) of the same substance?
A: very few microcolonies or aggregates

Q: And the “biofilm biomass compared to control” value ([3]; strains 3990 and 18, 24 h, glass capillary tubes, continuous flow)?
A: decreased biomass

Q: What about the “invasion of L. monocytogenes Scott A” value [4] of the same substance?
A: prevented

Q: And the worms survived (L. monocytogenes Scott A; C. elegans glp-4 on lawn of L. monocytogenes Scott A, agar medium with CMP 0.4 mg/ml, 8 days, 25° C., 37.5% without CMP)?
A: 54% and 50%

Q: And the “survival of C. elegans from the infection of L. monocytogenes” value (L. monocytogenes Scott A; CMP 0.4 mg/ml, 15 days)?
A: prolong the survival ability

— US8383582B2, “Inhibitor against forming biofilm comprising κ-casein macropeptide” (Industry Foundation of Chonnam National University, priority 2010, dated 2013)
